From patent US8785452B2, “Anti-infective compounds” (priority 2008, dated 2014)
Where two headings read alike, the source gives them in different places.

Assays:
[1] = tested on: M. tuberculosis H37Rv-GFP; assay: microbe, parasite or virus in culture; type: cell-based, Mycobacterium tuberculosis; details: Mycobacterium tuberculosis, H37RV, Macrophage; for inhibition at 0.2 µM: read-out: QIM Confirm % Inhibition 0.2 uM; for inhibition at 2 µM: read-out: QIM Confirm % Inhibition 2 uM
Raw264.7 cells = assay: Cell number (CellNb) from image analysis of the phenotypic cell-based assay
[2] = tested on: M. tuberculosis H37Rv-GFP; assay: microbe, parasite or virus in culture; type: cell-based; details: Mycobacterium tuberculosis; for inhibition at 0.2 µM: read-out: QUM Confirm % Inhibition 0.2 uM; for inhibition at 2 µM: read-out: QUM Confirm % Inhibition 2 uM; for inhibition at 20 µM: read-out: QUM Confirm % Inhibition 20 uM
[3] = confirmation, 0.2 uM, intracellular
[4] = confirmation, 2 uM, intracellular
[5] = confirmation, 20 uM, read-out: QIM Confirm % Inhibition 20 uM
[6] = primary screen, 20 μM, read-out: Primary QIM % Inhibition
[7] = read-out: Primary QIM % Inhibition
[8] = read-out: QIM Confirm % Inhibition 20 uM

Compound | inhibition at 0.2 µM [1, 3] | inhibition at 2 µM [1, 4] | inhibition at 20 µM [1, 5] | inhibition at 20 µM [1, 6] | QIM Confirm CellNb 0.2 uM (Raw264.7 cells; confirmation, 0.2 uM) | QIM Confirm CellNb 2 uM (Raw264.7 cells; confirmation, 2 uM) | QIM Confirm CellNb 20 uM (Raw264.7 cells; confirmation, 20 uM) | Primary QIM CellNb (Raw264.7 cells; primary screen, 20 μM) | inhibition at 0.2 µM [2] | inhibition at 2 µM [2] | inhibition at 20 µM [2] | inhibition at 20 µM [1, 7] | inhibition at 0.2 µM [1] | inhibition at 2 µM [1] | inhibition at 20 µM [1, 8] | Primary QIM CellNb (Raw264.7 cells) | QIM Confirm CellNb 0.2 uM (Raw264.7 cells) | QIM Confirm CellNb 2 uM (Raw264.7 cells) | QIM Confirm CellNb 20 uM (Raw264.7 cells)
CCCCc1ccc(/C=N/NC(=O)c2ccncc2)cc1 [IPK 000 013 69] | 68.9% | 105% | 58.6% | 91.3% | 405.8 | 532.1 | 443.3 | 327.5 | 51.2% | 79.1% | 62.4% | – | – | – | – | – | – | – | –
O=C(N/N=C/c1cccc(Br)c1)C1C2CC/C=C\CCC21 (stereo not drawn) [IPK 000 010 06] | 17.1% | 18% | 81.8% | 81% | 412.0 | 344.9 | 380.9 | 322.8 | 39.5% | 43.1% | 39.2% | – | – | – | – | – | – | – | –
O=C(NN1C(=O)c2ccc(Br)cc2C1=O)c1ccncc1 [IPK 000 008 02] | 0.7% | 9.3% | 98% | 83.2% | 306.6 | 218.8 | 484.5 | 305.8 | 36.4% | 31.9% | 98.2% | – | – | – | – | – | – | – | –
O=C(N/N=C/c1cccc2ccccc12)c1ccncc1 [IPK 000 041 46] | 41.8% | 101% | 93.3% | 81.2% | 386.9 | 542.6 | 347.1 | 320.0 | 41.1% | 81.4% | 57.9% | – | – | – | – | – | – | – | –
O=C(NCCOc1ccccc1Cl)c1cc([N+](=O)[O-])cc([N+](=O)[O-])c1 [IPK 000 027 72] | 29.3% | 77.7% | 100% | 82.6% | 267.0 | 440.4 | 238.1 | 333.3 | 35.1% | 97.6% | 101% | – | – | – | – | – | – | – | –
N#CC(C#N)=NNc1ccc(I)cc1 [IPK 000 007 31] | – | – | – | – | – | – | – | – | 41% | 33% | 80.8% | -28.2% | 45.7% | 14.7% | 25.8% | 61.3 | 393.1 | 308.8 | 166.5
O=C(N/N=C/c1ccccc1F)c1ccncc1 [IPK 000 013 71] | 86.3% | 105% | 97.5% | 103% | 476.5 | 544.3 | 377.4 | 358.8 | 51.6% | 92.2% | 68.4% | – | – | – | – | – | – | – | –
Brc1ccc(/C=N/Nc2nc(N3CCOCC3)nc(N3CCOCC3)n2)o1 [IPK 000 011 65] | 4.7% | 23.4% | 41.9% | 6.5% | 259.6 | 336.5 | 201.1 | 145.5 | 39.8% | 40.6% | 96.3% | – | – | – | – | – | – | – | –
COc1cccc(OCCNC(=O)c2cc([N+](=O)[O-])cc([N+](=O)[O-])c2)c1 [IPK 000 027 77] | – | – | – | – | – | – | – | – | 40.2% | 96.8% | 100% | 89.1% | -12.6% | 47.7% | 86.3% | 378.0 | 218.1 | 315.3 | 322.3
